Measured values: PubChem BioAssay AID192 (DTP/NCI, 2004)
Several values for one entry are separate records, joined by “and”; a condition that tells them apart may be missing. Equal entries are not always repeated. Inconclusive results and toxic doses are left out. The calls were made as follows: active = survival T/C of 150% or more; inactive = T/C below 125% in these data.

Test system: BDF1 mice, B16 melanoma ip, median survival T/C
Assay: NCI In Vivo Anticancer Drug Screen. Data for tumor model B16 Melanoma (intraperitoneal) in B6D2F1 (BDF1) mice
Details: endpoint: median survival time, higher = longer survival
Summary of the method: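 Each result divides a survival or tumor-size measurement in the compound-treated group by the same measurement in the vehicle group.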

[1] = dose: 0.78 mg/kg/injection, schedule: Q01DX009 (ip), vehicle: saline with Tween-80
[2] = dose: 1.56 mg/kg/injection, schedule: Q01DX009 (ip), vehicle: saline with Tween-80
[3] = dose: 3.12 mg/kg/injection, schedule: Q01DX009 (ip), vehicle: saline with Tween-80
[4] = dose: 6.25 mg/kg/injection, schedule: Q01DX009 (ip), vehicle: saline with Tween-80
[5] = dose: 12.5 mg/kg/injection, schedule: Q01DX009 (ip), vehicle: saline with Tween-80
[6] = dose: 25.0 mg/kg/injection, schedule: Q01DX009 (ip), vehicle: saline with Tween-80
[7] = dose: 50.0 mg/kg/injection, schedule: Q01DX009 (ip), vehicle: saline with Tween-80
[8] = dose: 100.0 mg/kg/injection, schedule: Q01DX009 (ip), vehicle: saline with Tween-80
[9] = dose: 200.0 mg/kg/injection, schedule: Q01DX009 (ip), vehicle: saline with Tween-80
[10] = dose: 100.0 mg/kg/injection, schedule: Q01DX009 (ip), vehicle: Klucel (hydroxypropylcellulose) (HPC)
[11] = dose: 200.0 mg/kg/injection, schedule: Q01DX009 (ip), vehicle: Klucel (hydroxypropylcellulose) (HPC)
[12] = dose: 100.0 mg/kg/injection, schedule: Q01DX009 (ip), vehicle: saline
[13] = dose: 200.0 mg/kg/injection, schedule: Q01DX009 (ip), vehicle: saline
[14] = dose: 400.0 mg/kg/injection, schedule: Q01DX009 (ip), vehicle: saline
[15] = dose: 25.0 mg/kg/injection, schedule: Q01DX009 (ip), vehicle: saline
[16] = dose: 50.0 mg/kg/injection, schedule: Q01DX009 (ip), vehicle: saline
[17] = dose: 400.0 mg/kg/injection, schedule: Q01DX009 (ip), vehicle: Klucel (hydroxypropylcellulose) (HPC)

Measured: T/C

Nc1ccn(C2OC(COP(=O)(O)O)C(O)C2O)c(=O)n1 (stereo not drawn)
inactive: dose: 16.0 mg/kg/injection, schedule: Q01DX009 (ip), vehicle: saline with Tween-80 105 % of control | dose: 32.0 mg/kg/injection, schedule: Q01DX009 (ip), vehicle: saline with Tween-80 105 % of control | dose: 64.0 mg/kg/injection, schedule: Q01DX009 (ip), vehicle: saline with Tween-80 115 % of control | dose: 128.0 mg/kg/injection, schedule: Q01DX009 (ip), vehicle: saline with Tween-80 122 % of control

C[CH2][Sn]1([CH2]C)[O]OC(c2ccccc2)[O]1 (stereo not drawn)
inactive: [1] 106 % of control | [2] 105 % of control and 111 % of control | [3] 109 % of control and 112 % of control | [4] 113 % of control and 116 % of control | [5] 101 % of control and 117 % of control

CNC(=O)Nc1nccs1
inactive: [6] 97 % of control | [7] 95 % of control | [8] 106 % of control | [9] 91 % of control

CC1(C)C2CCC1C(CO)C2 (stereo not drawn)
inactive: dose: 50.0 mg/kg/injection, schedule: Q01DX009 (ip), vehicle: Klucel (hydroxypropylcellulose) (HPC) 100 % of control | [10] 103 % of control | [11] 90 % of control

COC1=CC(=O)C(OC)=C(OC)C1=O
inactive: [3] 98 % of control | [4] 98 % of control | [5] 100 % of control | [6] 101 % of control | [7] 93 % of control

CCCCOC(=O)C(CC)(CC)C(=O)OCCCC
inactive: [12] 110 % of control | [13] 113 % of control | [14] 93 % of control

CC(C)NNC(=O)C(N)CO (stereo not drawn)
inactive: [15] 104 % of control | [16] 116 % of control | [12] 104 % of control | [13] 111 % of control

Cc1c[n+]2ccccc2n1C
inactive: [6] 99 % of control and 100 % of control | [7] 94 % of control and 96 % of control | [8] 93 % of control and 94 % of control

Clc1ccc2nc(CI)c(CI)nc2c1
inactive: dose: 0.19 mg/kg/injection, schedule: Q01DX009 (ip), vehicle: saline with Tween-80 90 % of control | dose: 0.39 mg/kg/injection, schedule: Q01DX009 (ip), vehicle: saline with Tween-80 90 % of control | [1] 100 % of control | [2] 104 % of control | [4] 102 % of control | [5] 97 % of control | [6] 89 % of control and 97 % of control | dose: 25.0 mg/kg/injection, schedule: Q04DX003 (ip), vehicle: saline with Tween-80 100 % of control | dose: 50.0 mg/kg/injection, schedule: Q04DX003 (ip), vehicle: saline with Tween-80 100 % of control

CCCCCCCCCCCCCCCCCS(=O)S(=O)O (stereo not drawn)
inactive: [8] 113 % of control | [9] 97 % of control | dose: 400.0 mg/kg/injection, schedule: Q01DX009 (ip), vehicle: saline with Tween-80 95 % of control

O=C1C=C(SCCO)C(=O)c2ccccc21
inactive: dose: 13.0 micrograms/kg/injection, schedule: Q01DX009 (ip), vehicle: saline with Tween-80 100 % of control | dose: 18.7 micrograms/kg/injection, schedule: Q01DX009 (ip), vehicle: saline with Tween-80 94 % of control | dose: 20.0 micrograms/kg/injection, schedule: Q01DX009 (ip), vehicle: saline with Tween-80 92 % of control | dose: 30.0 micrograms/kg/injection, schedule: Q01DX009 (ip), vehicle: saline with Tween-80 95 % of control | dose: 45.0 micrograms/kg/injection, schedule: Q01DX009 (ip), vehicle: saline with Tween-80 117 % of control | dose: 90.0 micrograms/kg/injection, schedule: Q01DX009 (ip), vehicle: saline with Tween-80 107 % of control

[Cl][Ni+2][Cl].[NH-]CCN1CC1
inactive: dose: 0.78 mg/kg/injection, schedule: Q01DX009 (ip), vehicle: saline 97 % of control | dose: 1.56 mg/kg/injection, schedule: Q01DX009 (ip), vehicle: saline 97 % of control | dose: 3.12 mg/kg/injection, schedule: Q01DX009 (ip), vehicle: saline 90 % of control

COC1=C(C)C2CC(=O)OC3CC4C(C)CC(O)C(=O)C4(C)C(C1=O)C32C (stereo not drawn)
inactive: dose: 0.5 mg/kg/injection, schedule: Q01DX009 (ip), vehicle: saline + alcohol 110 % of control | dose: 1.0 mg/kg/injection, schedule: Q01DX009 (ip), vehicle: saline + alcohol 107 % of control | dose: 2.0 mg/kg/injection, schedule: Q01DX009 (ip), vehicle: saline + alcohol 99 % of control | dose: 4.0 mg/kg/injection, schedule: Q01DX009 (ip), vehicle: saline + alcohol 87 % of control | dose: 8.0 mg/kg/injection, schedule: Q01DX009 (ip), vehicle: saline + alcohol 99 % of control

O=C(Cc1ccccc1)OCCc1ccccc1
inactive: [10] 103 % of control | [11] 100 % of control | [17] 93 % of control

CC(=O)NNC(=O)c1ccccn1
inactive: [6] 87 % of control | dose: 25.0 mg/kg/injection, schedule: Q01DX009 (ip), vehicle: water 93 % of control and 116 % of control | dose: 50.0 mg/kg/injection, schedule: Q01DX009 (ip), vehicle: water 110 % of control and 113 % of control | dose: 100.0 mg/kg/injection, schedule: Q01DX009 (ip), vehicle: water 93 % of control and 100 % of control | [9] 89 % of control

Cc1ccc(C#N)s1
inactive: dose: 3.12 mg/kg/injection, schedule: Q01DX009 (ip), vehicle: other 104 % of control | dose: 6.25 mg/kg/injection, schedule: Q01DX009 (ip), vehicle: other 109 % of control | dose: 12.5 mg/kg/injection, schedule: Q01DX009 (ip), vehicle: other 101 % of control | dose: 25.0 mg/kg/injection, schedule: Q01DX009 (ip), vehicle: other 108 % of control

Cc1cccc(C)c1NC(=O)c1cccc(C(=O)Nc2c(C)cccc2C)c1
inactive: [10] 100 % of control | [11] 94 % of control | [17] 91 % of control

NCC1OC(OC2C(N)CC(N)C(O)C2OC2OC(CO)C(O)C2O)C(N)C(O)C1O (stereo not drawn)
inactive: dose: 12.5 mg/kg/injection, schedule: Q01DX009 (ip), vehicle: saline 93 % of control | [15] 100 % of control | [16] 93 % of control | [12] 96 % of control

COc1cccc(NC(=O)Nc2cccc(Cl)c2)c1
inactive: [10] 103 % of control | [11] 96 % of control | [17] 103 % of control

O=C1C=CC2(CCC23C=CC(=O)O3)O1 (stereo not drawn)
inactive: dose: 7.5 mg/kg/injection, schedule: Q01DX009 (ip), vehicle: Klucel (hydroxypropylcellulose) (HPC) 87 % of control | dose: 15.0 mg/kg/injection, schedule: Q01DX009 (ip), vehicle: Klucel (hydroxypropylcellulose) (HPC) 93 % of control | dose: 30.0 mg/kg/injection, schedule: Q01DX009 (ip), vehicle: Klucel (hydroxypropylcellulose) (HPC) 92 % of control

CCOC(=O)N(C)C
inactive: [12] 93 % of control | [13] 98 % of control | [14] 94 % of control

COc1ccc(NC(=O)Nc2ccc(Cl)cc2)cc1
inactive: dose: 100.0 mg/kg/injection, schedule: Q04DX003 (ip), vehicle: Klucel (hydroxypropylcellulose) (HPC) 100 % of control | dose: 200.0 mg/kg/injection, schedule: Q04DX003 (ip), vehicle: Klucel (hydroxypropylcellulose) (HPC) 95 % of control | dose: 400.0 mg/kg/injection, schedule: Q04DX003 (ip), vehicle: Klucel (hydroxypropylcellulose) (HPC) 90 % of control
